Source: patent US10597388B2, “Pyridazinone herbicides” (FMC CORPORATION, priority 2014, dated 2020)

What was measured:
Test in all cases: Test D controlled growth environment herbicide test, pre- and postemergence
Format in all cases: in vivo
[1] = tested on: speedwell (bird's-eye speedwell, Veronica persica)
Procedure, shortened: (§1)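 Rating is visual, 0–100 scale (100 = complete control), made against untreated plants 14–21 d after treatment in controlled growth conditions. Postemergence sprays went onto 1- to 4-leaf plants in peat medium; preemergence sprays onto silt loam after sowing; formulation included a surfactant.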

[2] = tested on: barley, winter (winter barley, Hordeum vulgare)
Procedure, shortened: as §1

[3] = tested on: oilseed rape (Brassica napus)
Procedure, shortened: as §1

[4] = tested on: bluegrass (annual bluegrass, Poa annua)
Procedure, shortened: as §1

[5] = tested on: oat, wild (wild oat, Avena fatua)
Procedure, shortened: as §1

[6] = tested on: radish, wild (wild radish, Raphanus raphanistrum)
Procedure, shortened: as §1

[7] = tested on: field poppy (Papaver rhoeas)
Procedure, shortened: as §1

[8] = tested on: mustard, wild (wild mustard, Sinapis arvensis)
Procedure, shortened: as §1

[9] = tested on: galium (catchweed bedstraw, Galium aparine)
Procedure, shortened: as §1

[10] = tested on: pigweed (Amaranthus retroflexus)
Procedure, shortened: as §1

[11] = tested on: buckwheat, wild (wild buckwheat, Polygonum convolvulus)
Procedure, shortened: as §1

[12] = tested on: barley, spring (spring barley, Hordeum vulgare)
Procedure, shortened: as §1

[13] = tested on: chamomile (scentless chamomile, Matricaria inodora)
Procedure, shortened: as §1

[14] = Postemergence, 31 g ai/ha, scale 0 to 100 (0 no effect, 100 complete control)
[15] = Postemergence, 125 g ai/ha, visual rating on scale 0 (no effect) to 100 (complete control), 14 to 21 d
[16] = Postemergence, 250 g ai/ha, scale 0 to 100 (0 no effect, 100 complete control)
[17] = Preemergence, 62 g ai/ha, scale 0 to 100 (0 no effect, 100 complete control)
[18] = Preemergence, 125 g ai/ha, scale 0 to 100 (0 no effect, 100 complete control)
[19] = Preemergence, 250 g ai/ha, scale 0 to 100 (0 no effect, 100 complete control)
[20] = postemergence, 62 g ai/ha, scale 0 to 100, 0 no effect, 100 complete control

Structure (SMILES): CCC(=O)Oc1c(C)nn(C)c(=O)c1-c1c(C)sc2c(C)cc(C)cc12 [Compound 28]
- Speedwell plant response rating [1, 14]: 60
- Plant response rating, Speedwell [1, 15]: 100
- Plant response rating, Speedwell [1, 16]: 100
- Plant response rating (scale of 0 to 100), Speedwell ([1]; Preemergence, 31 g ai/ha): 95
- Plant response rating, Speedwell [1, 17]: 95
- Plant response rating, Speedwell [1, 18]: 95
- Plant response rating, Speedwell [1, 19]: 100
- Plant response rating, Speedwell [1, 20]: 85
- Plant response rating, Barley, Winter [2, 14]: 0
- Plant response rating, Barley, Winter [2, 15]: 5
- Plant response rating, Barley, Winter [2, 16]: 5
- Plant response rating (scale of 0 to 100), Barley, Winter ([2]; Preemergence, 31 g ai/ha): 0
- Plant response rating, Barley, Winter [2, 17]: 0
- Plant response rating, Barley, Winter [2, 18]: 15
- Barley, Winter plant response rating [2, 19]: 15
- Plant response rating, Barley, Winter [2, 20]: 0
- Oilseed Rape plant response rating [3, 14]: 65
- Plant response rating, Oilseed Rape [3, 15]: 65
- Plant response rating, Oilseed Rape [3, 16]: 85
- Plant response rating (scale of 0 to 100), Oilseed Rape ([3]; Preemergence, 31 g ai/ha): 0
- Plant response rating, Oilseed Rape [3, 17]: 0
- Plant response rating, Oilseed Rape [3, 18]: 10
- Plant response rating, Oilseed Rape [3, 19]: 25
- Plant response rating, Oilseed Rape [3, 20]: 65
- Bluegrass plant response rating [4, 14]: 20
- Plant response rating, Bluegrass [4, 15]: 35
- Plant response rating, Bluegrass [4, 16]: 50
- Plant response rating (scale of 0 to 100), Bluegrass ([4]; Preemergence, 31 g ai/ha): 30
- Plant response rating, Bluegrass [4, 17]: 45
- Plant response rating, Bluegrass [4, 18]: 65
- Bluegrass plant response rating [4, 19]: 75
- Plant response rating, Bluegrass [4, 20]: 30
- Oat, Wild plant response rating [5, 14]: 75
- Plant response rating, Oat, Wild [5, 15]: 90
- Plant response rating, Oat, Wild [5, 16]: 95
- Plant response rating (scale of 0 to 100), Oat, Wild ([5]; Preemergence, 31 g ai/ha): 85
- Plant response rating, Oat, Wild [5, 17]: 85
- Plant response rating, Oat, Wild [5, 18]: 90
- Plant response rating, Oat, Wild [5, 19]: 100
- Plant response rating, Oat, Wild [5, 20]: 85
- Radish, Wild plant response rating [6, 14]: 85
- Plant response rating, Radish, Wild [6, 15]: 85
- Plant response rating, Radish, Wild [6, 16]: 95
- Plant response rating (scale of 0 to 100), Radish, Wild ([6]; Preemergence, 31 g ai/ha): 0
- Plant response rating, Radish, Wild [6, 17]: 0
- Plant response rating, Radish, Wild [6, 18]: 35
- Plant response rating, Radish, Wild [6, 19]: 30
- Plant response rating, Radish, Wild [6, 20]: 100
- Field Poppy plant response rating [7, 14]: 80
- Plant response rating, Field Poppy [7, 15]: 100
- Plant response rating, Field Poppy [7, 16]: 100
- Plant response rating (scale of 0 to 100), Field Poppy ([7]; Preemergence, 31 g ai/ha): 100
- Plant response rating, Field Poppy [7, 17]: 95
- Plant response rating, Field Poppy [7, 18]: 95
- Plant response rating, Field Poppy [7, 19]: 100
- Plant response rating, Field Poppy [7, 20]: 90
- Mustard, Wild plant response rating [8, 14]: 35
- Plant response rating, Mustard, Wild [8, 15]: 70
- Plant response rating, Mustard, Wild [8, 16]: 70
- Plant response rating (scale of 0 to 100), Mustard, Wild ([8]; Preemergence, 31 g ai/ha): 10
- Plant response rating, Mustard, Wild [8, 17]: 15
- Plant response rating, Mustard, Wild [8, 18]: 30
- Plant response rating, Mustard, Wild [8, 19]: 55
- Plant response rating, Mustard, Wild [8, 20]: 45
- Galium plant response rating [9, 14]: 100
- Plant response rating, Galium [9, 15]: 100
- Plant response rating, Galium [9, 16]: 100
- Plant response rating (scale of 0 to 100), Galium ([9]; Preemergence, 31 g ai/ha): 15
- Plant response rating, Galium [9, 17]: 60
- Plant response rating, Galium [9, 18]: 85
- Plant response rating, Galium [9, 19]: 100
- Plant response rating, Galium [9, 20]: 100
- Pigweed plant response rating [10, 14]: 75
- Plant response rating, Pigweed [10, 15]: 100
- Plant response rating, Pigweed [10, 16]: 90
- Plant response rating (scale of 0 to 100), Pigweed ([10]; Preemergence, 31 g ai/ha): 90
- Plant response rating, Pigweed [10, 17]: 100
- Plant response rating, Pigweed [10, 18]: 100
- Plant response rating, Pigweed [10, 19]: 100
- Plant response rating, Pigweed [10, 20]: 90
- Buckwheat, Wild plant response rating [11, 14]: 100
- Plant response rating, Buckwheat, Wild [11, 15]: 100
- Plant response rating, Buckwheat, Wild [11, 16]: 100
- Plant response rating (scale of 0 to 100), Buckwheat, Wild ([11]; Preemergence, 31 g ai/ha): 0
- Plant response rating, Buckwheat, Wild [11, 17]: 0
- Plant response rating, Buckwheat, Wild [11, 18]: 20
- Plant response rating, Buckwheat, Wild [11, 19]: 100
- Plant response rating, Buckwheat, Wild [11, 20]: 100
- Plant response rating, Barley, Spring [12, 14]: 5
- Plant response rating, Barley, Spring [12, 15]: 5
- Plant response rating, Barley, Spring [12, 16]: 10
- Plant response rating (scale of 0 to 100), Barley, Spring ([12]; Preemergence, 31 g ai/ha): 0
- Plant response rating, Barley, Spring [12, 17]: 0
- Plant response rating, Barley, Spring [12, 18]: 0
- Barley, Spring plant response rating [12, 19]: 0
- Plant response rating, Barley, Spring [12, 20]: 5
- Chamomile plant response rating [13, 14]: 85
- Plant response rating, Chamomile [13, 15]: 90
- Plant response rating, Chamomile [13, 16]: 95
- Plant response rating (scale of 0 to 100), Chamomile ([13]; Preemergence, 31 g ai/ha): 100
- Plant response rating, Chamomile [13, 17]: 95
- Plant response rating, Chamomile [13, 18]: 100
- Plant response rating, Chamomile [13, 19]: 100
- Plant response rating, Chamomile [13, 20]: 90
